Tests used:
[1] = biological target: T1, ACAT derived from human macrophage (Homo sapiens, UniProt P35610); assay: Inhibitory activity against ACAT derived from human macrophage (microsomes of TPA-differentiated U937 cells); format: biochemical; settings: for Selectivity: Table 1, rat liver ACAT IC50 / human macrophage ACAT IC50; for IC50: human macrophage (U937/TPA) microsome, pH 7.4, 37° C., 30 minutes
T1 construct: Using, as an enzyme source, microsomal fractions prepared in the manner described below under Preparation of Microsome from U937 cells; endogenous in cells; host or cells: U937 cells differentiated with TPA, microsomal fraction
T1 sequence (P35610 1-550): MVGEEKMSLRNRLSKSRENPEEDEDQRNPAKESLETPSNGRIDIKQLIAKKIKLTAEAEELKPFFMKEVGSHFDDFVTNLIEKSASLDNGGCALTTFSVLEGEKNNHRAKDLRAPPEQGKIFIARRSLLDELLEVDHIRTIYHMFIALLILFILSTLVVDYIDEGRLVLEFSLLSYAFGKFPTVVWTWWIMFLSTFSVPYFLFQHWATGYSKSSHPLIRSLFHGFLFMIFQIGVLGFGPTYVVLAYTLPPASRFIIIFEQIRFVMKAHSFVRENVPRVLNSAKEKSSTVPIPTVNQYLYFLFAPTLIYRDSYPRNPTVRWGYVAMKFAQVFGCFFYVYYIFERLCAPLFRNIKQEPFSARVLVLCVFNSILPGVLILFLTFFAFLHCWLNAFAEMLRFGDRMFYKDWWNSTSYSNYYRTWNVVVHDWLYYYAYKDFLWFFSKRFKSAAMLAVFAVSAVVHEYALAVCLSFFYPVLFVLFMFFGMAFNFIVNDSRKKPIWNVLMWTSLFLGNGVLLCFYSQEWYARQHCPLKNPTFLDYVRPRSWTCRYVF
Procedure: Inhibitory activity against ACAT derived from human macrophage
(§1) Using, as an enzyme source, microsomal fractions prepared in the manner described below under Preparation of Microsome from U937 cells [human monocyte-derived cells known to differentiate into macrophages by the addition of TPA (12-O-tetradecanoylphorbol 13-acetate)] differentiated with TPA, the inhibitory activity against ACAT in the microsome fractions was determined as in the following. The compound of the present invention was dissolved in dimethyl sulfoxide and used as a sample solution. [1-^14 C] […] Ethanol (1 ml) was added to stop the reaction, and n-hexane (4.5 ml) was added. The reaction mixture was centrifuged at 2,000 rpm for 2 minutes and the upper n-hexane layer was separated and recovered, whereby cholesterol oleate (reaction product) was extracted. n-Hexane was evaporated with a nitrogen gas and the residue was re-dissolved in n-hexane (50 μl), which was used as a sample for thin-layer chromatography. […] After developing, the spot of cholesterol oleate was colored with iodine. The spot was cut out and dissolved in a xylene scintillator (Aquasol-2, Daiichi Pure Chemicals Co., Ltd.). The amount of cholesterol oleate was determined with a liquid scintillation counter.
The cells thus scraped and the culture solution were centrifuged at 3,000 rpm for 5 minutes, and the cell fractions obtained as precipitate were once freezed at -70° C. and preserved. The cells preserved at -70° C. were thawed and homogenized at 4° C. in a Teflon homogenizer. The homogenate was centrifuged at 12,000 g for 15 minutes. The precipitate fractions containing nuclea and mitochondria were removed and the obtained supernatant was further centrifuged at 100,000 g for 60 minutes. The supernatant was discarded, and the obtained precipitate fractions were suspended in 150 mM potassium phosphate buffer (pH 7.4) and used as a microsomal fraction.

[2] = tested on: ACAT derived from rat liver; assay: Inhibitory activity against ACAT derived from rat liver microsome; format: biochemical; settings: pH 7.4, 37° C., 30 minutes
Procedure: Inhibitory activity against ACAT derived from rat liver microsome
as §1, with “source, the” for “source,”, “prepared from rat liver” for “prepared”, “of Microsome,” for “of Microsome from U937 cells [human monocyte-derived cells known to differentiate into macrophages by the addition of TPA (12-O-tetradecanoylphorbol 13-acetate)] differentiated with TPA,”, “re-dissolved dissolved” for “re-dissolved”, “determined using” for “determined with”
The liver was removed from a fasted rat and thoroughly perfused with 0.25M sucrose solution. The liver was weighed, minced with scissors or razor and placed in a Teflon homogenizer. The liver was homogenized with 9 volumes [9 ml per g (wet weight) of liver] of 0.25M sucrose solution or 50 mM Tris-HCl buffer (pH 7.5) containing 0.25M sucrose and 5 mM MgCl2. The homogenate was centrifuged at 8,000-10,000 g for 10-15 minutes. The obtained supernatant was centrifuged at 105,000 g for 60-90 minutes. The sediment obtained from this centrifugation was suspended in 150 mM potassium phosphate buffer (pH 7.4) to give a microsomal fraction.

[3] = Reduction of cholesterol in blood of cholesterol-loaded rats; format: in vivo, Male slc:SD (SPF) rats; settings: serum total cholesterol; 90 mg/kg/day orally, five days; average of 8 rats; control taken as 100%
From the text: Reduction of cholesterol in blood of rats
Male slc:SD (SPF) rats (4 weeks of age weighing 70-90 g, Japan SLC Inc.) were randomly divided into 8 per group and bred for 3 days on a normal diet (solid diet for test animals, MF, manufactured by Oriental Yeast CO., LTD.). Then, the aforementioned diet supplemented with 5% cholesterol, 10% olive oil and 0.5% cholic acid was freely fed for 10 days. During the last five days, the test compound (Compounds 3-6, 8, 11 and 12) suspended in 0.5% aqueous methylcellulose solution was forcibly administered orally once a day in a dose of 10 ml/kg which contains 90 mg/kg/day of the test compound (total dose of the test compound being 450 mg/kg). The rats were fasted for 16 hours after the final administration and etherized. The blood was taken from the abdominal aorta, and serum was separated by centrifugation to determine the total cholesterol content in the serum. The control group was administered with 0.5% aqueous methylcellulose solution instead of the test compound suspended in 0.5% aqueous methylcellulose solution.
* is an average of 8 rats per group based on the cholesterol content in
blood of control which was taken as 100%.

[4] = Acute toxicity, oral, mice; format: in vivo, Male slc:ICR mice
Procedure: Male slc:ICR mice (4 weeks of age, Japan SLC Inc.) were bred for 7 days on a normal diet (solid diet for test animals, Labo MR stock-SLC, manufactured by Japan SLC Inc.). Then, the mice were fasted for 16 hours and divided into 5 per group. The mice were forcibly administered orally with the test compound (Compounds 4, 5 and 9-12) dissolved in corn oil. The mice were further bred on a normal diet for 14 days to observe acute toxicity.

SMILES | Selectivity [1] | IC50 [1] [µM] | IC50 [2] [µM] | Reduction of cholesterol in cholesterol-loaded rats, %* [3] [%] | minimum lethal dose ([4]; mouse, in vivo, po, 20160 min) | minimum lethal dose ([4]; single oral administration in corn oil, mice, 14 days observation)
CCC=CCC=CCC=CCC=CCC=CCC=CCCC(=O)Nc1c(F)cc(F)cc1F [Compound 4, N-(2,4,6-trifluorophenyl)-4,7,10,13,16,19-docosahexaenamide] | > 806 | 0.62 | > 500 | 59 | ≥ 2,000 mg/kg | 
CCC=CCC=CCC=CCC=CCC=CCCCC(=O)Nc1c(F)cc(F)cc1F [Compound 3, N-(2,4,6-trifluorophenyl)-5,8,11,14,17-eicosapentaenamide] | > 1852 | 0.27 | > 500 | 71 |  | 
CCC=CCC=CCC=CCC=CCC=CCCCC(=O)Nc1c(C)cc(C)cc1C [Compound 5, N-(2,4,6-trimethylphenyl)-5,8,11,14,17-eicosapentaenamide] | 47.9 | 0.9 | 43.1 | 57 |  | ≥ 2,000 mg/kg
CCC=CCC=CCC=CCC=CCC=CCC=CCCC(=O)Nc1c(C)cccc1C [Compound 8, N-(2,6-dimethylphenyl)-4,7,10,13,16,19-docosahexaenamide] | 264 | 0.28 | 73.9 | 77 |  | 
CCC=CCC=CCC=CCC=CCC=CCC=CCCC(=O)Nc1c(C)cc(C)cc1C [Compound 6, N-(2,4,6-trimethylphenyl)-4,7,10,13,16,19-docosahexaenamide] | > 3333 | 0.15 | > 500 | 68 |  | 
CCC=CCC=CCC=CCC=CCC=CCCCC(=O)Nc1c(C(C)C)cccc1C(C)C [Compound 11, N-(2,6-diisopropylphenyl)-5,8,11,14,17-eicosapentaenamide] | 247 | 0.0097 | 2.4 | 78 |  | 
